Results taken from ChEMBL document CHEMBL1201862, “PubChem BioAssay data set” (2004).
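Dose response: 5 concentrations. Exposure: 48 h. Format: 96-well plates. Endpoint: linear interpolation; highest concentration if not reached. GI50 is the concentration that inhibits growth by half.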 Calls of active or inactive are those of the source. Cut-off read from the data, not from the text of the source: active = GI50 up to about 1.1 µM and inactive = higher.

Experiments:
Assay in all cases: inhibition of tumour cell growth, NCI panel, 48 h
SF-268 = tested on: SF-268
M19-MEL = tested on: M19-MEL
EKVX = tested on: EKVX
HT-29 = tested on: HT-29
M14 = tested on: M14
MOLT-4 = tested on: MOLT-4
MDA-MB-435 = tested on: MDA-MB-435
NCI-H460 = tested on: NCI-H460
ACHN = tested on: ACHN
RXF 393 = tested on: RXF 393
SNB-19 = tested on: SNB-19
SN12C = tested on: SN12C
COLO 205 = tested on: COLO 205
OVCAR-5 = tested on: OVCAR-5
LOX IMVI = tested on: LOX IMVI
NCI-H226 = tested on: NCI-H226
SK-OV-3 = tested on: SK-OV-3
HOP-92 = tested on: HOP-92
DMS-273 = tested on: DMS-273
Malme-3M = tested on: Malme-3M
SK-MEL-2 = tested on: SK-MEL-2
BT-549 = tested on: BT-549
HCT-15 = tested on: HCT-15
HCT-116 = tested on: HCT-116
K562 = tested on: K562
UO-31 = tested on: UO-31
NCI-H23 = tested on: NCI-H23
A498 = tested on: A498
T47D = tested on: T47D
MDA-MB-231 = tested on: MDA-MB-231
RXF 631 = tested on: RXF 631
HOP-62 = tested on: HOP-62
OVCAR-4 = tested on: OVCAR-4
UACC-257 = tested on: UACC-257
PC-3 = tested on: PC-3
HL-60 = tested on: HL-60
KM12 = tested on: KM12
RPMI-8226 = tested on: RPMI-8226
LXFL 529 = tested on: LXFL 529
DLD-1 = tested on: DLD-1
IGROV-1 = tested on: IGROV-1
UACC-62 = tested on: UACC-62
OVCAR-8 = tested on: OVCAR-8
DMS-114 = tested on: DMS-114
CAKI-1 = tested on: CAKI-1
MDA-N = tested on: MDA-N
SW-620 = tested on: SW-620
U-251 = tested on: U-251
CCRF-CEM = tested on: CCRF-CEM
SK-MEL-28 = tested on: SK-MEL-28
TK-10 = tested on: TK-10
MCF7 = tested on: MCF7
786-0 = tested on: 786-0
XF498 = tested on: XF498
A549 = tested on: A549
SF-295 = tested on: SF-295
HOP-18 = tested on: HOP-18
KM-20L2 = tested on: KM-20L2
SNB-78 = tested on: SNB-78
SR = tested on: SR
OVCAR-3 = tested on: OVCAR-3
NCI-H522 = tested on: NCI-H522
SNB-75 = tested on: SNB-75
SK-MEL-5 = tested on: SK-MEL-5
SF-539 = tested on: SF-539
HCC 2998 = tested on: HCC 2998

Measured: GI50

COC(=O)Nc1nc2cc(C(=O)c3cccs3)ccc2[nH]1 [NOCODAZOLE]
active: SF-268 0.0893 µM | M19-MEL 0.195 µM | EKVX 0.0397 µM | HT-29 0.0142 µM | M14 0.014 µM | MOLT-4 0.0205 µM | MDA-MB-435 0.0111 µM | NCI-H460 0.0179 µM | ACHN 0.225 µM | RXF 393 0.0134 µM | SNB-19 0.0857 µM | SN12C 0.074 µM | COLO 205 0.0194 µM | LOX IMVI 0.0214 µM | NCI-H226 0.0625 µM | SK-OV-3 0.0165 µM | HOP-92 0.292 µM | DMS-273 0.0322 µM | Malme-3M 0.0272 µM | SK-MEL-2 < 0.0193 µM | BT-549 0.0527 µM | HCT-116 0.0152 µM | K562 < 0.0118 µM | UO-31 0.0579 µM | NCI-H23 0.0168 µM | A498 0.0196 µM | MDA-MB-231 0.171 µM | RXF 631 0.07 µM | HOP-62 0.0287 µM | UACC-257 < 0.148 µM | PC-3 0.0141 µM | HL-60 0.0113 µM | KM12 0.0139 µM | RPMI-8226 < 0.0132 µM | LXFL 529 0.0532 µM | DLD-1 0.0344 µM | IGROV-1 0.0242 µM | UACC-62 0.0184 µM | OVCAR-8 0.029 µM | DMS-114 0.0424 µM | CAKI-1 1.11 µM | MDA-N 0.0124 µM | SW-620 0.0141 µM | U-251 0.0403 µM | CCRF-CEM 0.0145 µM | SK-MEL-28 0.0957 µM | MCF7 0.0422 µM | 786-0 0.0789 µM | XF498 0.0314 µM | A549 0.0186 µM | SF-295 0.0128 µM | KM-20L2 < 0.0132 µM | SNB-78 0.0322 µM
inactive: OVCAR-5 20.7 µM | T47D > 80.9 µM | OVCAR-4 22.3 µM | TK-10 2.95 µM | HOP-18 32.8 µM
0.0198 µM: HCT-15

COC(=O)CC(NC(=O)OCc1ccccc1)C(C(C)=O)C(=O)OCc1ccccc1 (stereo not drawn)
inactive: SF-268 > 31.6 µM | M19-MEL > 31.6 µM | EKVX > 31.6 µM | HT-29 > 10 µM | M14 > 31.6 µM | MOLT-4 > 31.6 µM | NCI-H460 > 31.6 µM | ACHN > 31.6 µM | RXF 393 > 10 µM | SR > 100 µM | SNB-19 > 10 µM | SN12C > 31.6 µM | COLO 205 > 31.6 µM | OVCAR-5 > 100 µM | LOX IMVI > 100 µM | OVCAR-3 > 31.6 µM | NCI-H226 > 10 µM | SK-OV-3 > 31.6 µM | HOP-92 > 31.6 µM | DMS-273 > 31.6 µM | NCI-H522 > 31.6 µM | Malme-3M > 10 µM | SK-MEL-2 > 10 µM | HCT-116 > 31.6 µM | K562 > 31.6 µM | UO-31 > 31.6 µM | SNB-75 20.2 µM | NCI-H23 > 31.6 µM | A498 > 31.6 µM | RXF 631 > 10 µM | HOP-62 > 10 µM | OVCAR-4 > 10 µM | UACC-257 > 31.6 µM | HL-60 > 31.6 µM | KM12 > 31.6 µM | SK-MEL-5 > 31.6 µM | RPMI-8226 > 31.6 µM | LXFL 529 5.48 µM | SF-539 > 31.6 µM | DLD-1 > 31.6 µM | IGROV-1 > 31.6 µM | HCC 2998 > 10 µM | UACC-62 > 31.6 µM | OVCAR-8 > 31.6 µM | DMS-114 > 31.6 µM | CAKI-1 > 31.6 µM | SW-620 > 31.6 µM | U-251 > 31.6 µM | CCRF-CEM > 31.6 µM | SK-MEL-28 > 31.6 µM | TK-10 > 31.6 µM | 786-0 > 31.6 µM | XF498 > 10 µM | A549 > 31.6 µM | SF-295 > 100 µM | HOP-18 > 31.6 µM | KM-20L2 > 31.6 µM | SNB-78 > 31.6 µM
> 31.6 µM: HCT-15
